{
  "source": "patent US20150044296A1",
  "about": "“COMBINATION THERAPY TO IMPROVE JOINT, TENDON, AND LIGAMENT HEALING” (priority 2012, published 2015)",
  "tested_on": "trephine defect (bony healing)",
  "test": "Bony healing of trephine defect after systemic treatment",
  "format": "in vivo, mice",
  "settings": "systemic administration",
  "data": [
    {"compound": "c1cc(CN2CCCNCCNCCCNCC2)ccc1CN1CCCNCCNCCCNCC1", "note": "[AMD3100]", "values": [
      {"measurement": "bony ingrowth / bony regeneration", "value": 59.7, "unit": "%"}
    ]},
    {"compound": "CC[C@H](C)[C@H](NC(=O)[C@H](CCC(=O)O)NC(=O)[C@H](CO)NC(=O)[C@@H](NC(=O)[C@@H](N)CO)C(C)C)C(=O)N[C@@H](CCC(N)=O)C(=O)N[C@@H](CC(C)C)C(=O)N[C@@H](CCSC)C(=O)N[C@@H](Cc1cnc[nH]1)C(=O)N[C@@H](CC(N)=O)C(=O)N[C@@H](CC(C)C)C(=O)NCC(=O)N[C@@H](CCCCN)C(=O)N[C@@H](Cc1cnc[nH]1)C(=O)N[C@@H](CC(C)C)C(=O)N[C@@H](CC(N)=O)C(=O)N[C@@H](CO)C(=O)N[C@@H](CCSC)C(=O)N[C@@H](CCC(=O)O)C(=O)N[C@@H](CCCN=C(N)N)C(=O)N[C@H](C(=O)N[C@@H](CCC(=O)O)C(=O)N[C@@H](Cc1c[nH]c2ccccc12)C(=O)N[C@@H](CC(C)C)C(=O)N[C@@H](CCCN=C(N)N)C(=O)N[C@@H](CCCCN)C(=O)N[C@@H](CCCCN)C(=O)N[C@@H](CC(C)C)C(=O)N[C@@H](CCC(N)=O)C(=O)N[C@@H](CC(=O)O)C(=O)N[C@H](C(=O)N[C@@H](Cc1cnc[nH]1)C(=O)N[C@@H](CC(N)=O)C(=O)N[C@@H](Cc1ccccc1)C(=O)O)C(C)C)C(C)C", "note": "[PTH]", "values": [
      {"measurement": "bony ingrowth / bony regeneration", "value": 56, "unit": "%"}
    ]}
  ]
}
